Results: patent US4690823A, “Ibuprofen-containing soft gelatin capsules and process for preparing same” (Dolorgiet Beteiligungs-GmbH, priority 1984, dated 1987)

Test: Precipitation of ibuprofen from solution on contact with aqueous medium / artificial gastric juice or on cooling
Format: physicochemical
Conditions: addition of small amounts of water, or aqueous medium such as artificial gastric juice
Text: It is an object of the present invention to provide a medicament that can be readily taken that contains an active amount of ibuprofen in a carrier, that is simple to prepare and that will quickly display a high activity. […] When such a solution, upon oral administration, gets into the stomach, then the aqueous content of the stomach causes the ibuprofen to be precipitated so that it will be barred from a quick resorption. […] In addition, these solutions may be incorporated in soft gelatin capsules in a per se known manner. The latter dosage form has an advantage over all other previously known dosage forms for ibuprofen that upon intake the active ingredient is quickly resorbed. To this effect it is not necessary that, subsequent to synthesis, the active ingredient is subjected to expensive galenic processing measures. […] In order to dissolve ibuprofen in the solvents according to the invention, the solvents are heated at 45° C. to 65° C., since only at these temperatures the dissolution will take place sufficiently fast. Upon cooling to room temperature, no reprecipitation occurs. […] It is readily possible that 40 parts by weight are additionally suspended in said solutions at room temperature and thereafter incorporated in soft gelatin capsules. […]

CC(C)Cc1ccc(C(C)C(=O)O)cc1 (stereo not shown) [Ibuprofen, 2-(4-isobutylphenyl)propionic acid]
precipitation on contact with aqueous medium (in words): will immediately precipitate upon the addition of small amounts of water
